Results reported in patent publication US20240173276A1, “METHODS AND COMPOSITIONS FOR INHIBITING FORMATION OF THE HIV LATENT RESERVOIR” (The University of North Carolina at Chapel Hill, priority 2021, published 2024).

Key:
[1] = test system: HIV-GFP infected primary CD4 T cells; assay: Primary CD4 T cell latency model (HIV-GFP reporter, flow cytometry of GFP- cells); format: cell-based, human; conditions: for effect on the formation of latently infected (GFP-) cells: cultured in the presence of inhibitor from 2 dpi for up to 4 weeks, FIG. 1B
Description: Viruses and cell culture: Stocks of HIV-GFP were generated by co-transfection of 293T cells with the pNL4-3-Δ6-dreGFP plasmid (generous gift of Robert Siliciano) and the packaging plasmids PAX2-GagPol) and MD2-VSVG, using Mirus LT1 reagent. At 2 days post transfection virus was harvested from the supernatant and clarified by low speed centrifugation, followed by filtration through a […] filter.
Primary cell latency model: Primary CD4 T cells were isolated from fresh whole blood (purchased from Gulf Coast Regional Blood Center) by Ficoll isolation of peripheral blood mononuclear cells (PBMCs), then magnetic negative selection of CD4 T cells using a CD4 enrichment kit (Stem Cell). Total primary CD4 T cells were activated using anti-CD3/CD28 beads (Thermo Fisher) at a ratio of one bead per cell for 2 days, then infected with HIV-GFP viral supernatant by spinocculation for 2 hrs at 600 g with 4 µg/mL polybrene. The infected cells were then resuspended in fresh RPMI with IL-2 (Peprotech) at 100 U/mL and incubated for two days before actively infected (GFP^+) cells were sorted using a FACSAria flow sorter (Becton Dickson). The purified infected cells (GFP^+) were then maintained at 1-2 million/mL with fresh media and IL-2 added every 2-3 days for 2 weeks. […] Other small molecule inhibitors were purchased from commercial vendors.
HIV latency is regulated by covalent modifications to provirus-associated histones that can promote or repress transcription. These modifications are mediated by a set of host cell enzyme complexes, including histone acetyl transferases (HATs), histone deacetylases (HDACs), histone methyltransferases (HMTs) and histone demethylases (HDMs). To investigate the role of these complexes in the establishment of HIV latency a primary CD4 T cell model of latency was examined. In this model, activated CD4 T cells are infected with a GFP expressing reporter strain of HIV. At 2 dpi, actively infected cells (GFP^+) are sorted to obtain a pure actively infected population, then cultured for 3-4 weeks (FIG. 1A). […] To examine the role of specific histone modifying enzymes in this system, actively infected (GFP^+) cells were isolated at 2 dpi and the cells cultured in the presence of a panel of inhibitors targeting chromatin modifying complexes. […] The infected cells were cultured in the presence of each inhibitor for up to 4 weeks. Each week post infection, the emergence of the latently infected (GFP^−) population was measured by flow cytometry (FIG. 1B).

[2] = test system: HIV-dreGFP/Thy1.2 infected primary CD4 T cells; assay: HDAC selective inhibitor experiments in HIV-dreGFP/Thy1.2 infected CD4 T cells (viral gene expression by flow cytometry); format: cell-based, human; conditions: cultured 14 d in the presence of inhibitor; FIG. 7B
Description: FIGS. 7A-7D show Class I HDAC selective inhibitors reveal druggable dependency on HDAC1 and 2 in latency initiation. A. Schematic overview of HDAC selective inhibitor experiments. […] B. Dose response curve showing the proportion of cells with productive viral gene expression after two weeks of treatment with the indicated inhibitors. Data shown are from one representative cell donor conducted in technical triplicate. C. Time course flow cytometry experiment in HIV-GFP/Thy1.2 infected primary CD4 T cells cultured with the indicated inhibitors. […] D. Mean fluorescent intensity (MFI) of GFP signal in Thy1.2+ cells in data from C. Data shown are representative of three independent experiments.
However, the contribution and roles of individual HDACs are largely unknown. Because of the high homology of HDAC1 and HDAC2 in the enzyme activation site, selective inhibitors for HDAC1 or HDAC2 have not been developed. Thus, the impact of novel small molecules that inhibit both HDAC1 and HDAC2 (HDAC1/2i) or HDAC3 (HDAC3i) on HIV silencing in CD4 T cells was examined. Activated CD4 T cells were infected with HIV-dreGFP/Thy1.2 and cultured for 14 d in the presence of each inhibitor, and viral gene expression was measured by flow cytometry (FIG. 7A).

[3] = previous clinical studies, vorinostat dosing; cited from earlier work
[4] = test system: HIV-eGFP infected CD4 T cells; assay: Surface marker phenotype of HIV infected CD4 T cells by flow cytometry; format: cell-based, human; conditions: vorinostat exposure post stimulation, vs DMSO, FIG. 4
Description: HIV gene expression is regulated by a set of host cell transcription factors that vary in activity as CD4 T cells adopt different activation states and sub-lineage identities post activation. […] To investigate this possibility, flow cytometry was performed to examine the surface marker phenotype of HIV infected cells.

With Nc1ncnc2c1ncn2[C@@H]1O[C@H](C[C@@H](N)CC[C@H](N)C(=O)O)[C@@H](O)[C@H]1O [Singefungin, sinefungin] the “effect on the formation of latently infected (GFP-) cells” value (“effect on the formation” below) [1] was “no significant effect”.
With COc1cc2nc(N3CCCN(C)CC3)nc(NC3CCN(Cc4ccccc4)CC3)c2cc1OC [BIX1294] the “effect on the formation” value [1] was “modest reduction in the percentage of latently infected cells”.
In the case of Nc1cc(F)ccc1NC(=O)/C=C/c1cnn(C/C=C/c2ccccc2)c1 [RGFP966], the “latency prevention (prevention of HIV silencing), dose response” value [2] is reported as “much lower extent”.
With CCCc1cc(C)[nH]c(=O)c1CNC(=O)c1cc(-c2ccc(N3CCN(C(C)C)CC3)nc2)cc2c1cnn2C(C)C [UNC1999] the “effect on the formation” value [1] was “modest reduction in the percentage of latently infected cells”.
For O=C(CCCCCCC(=O)Nc1ccccc1)NO [vorinostat], the “time of declining concentrations” value [3] is listed as 6 to 24 h, the “time of peak concentrations” value [3] is listed as 2 to 6 h and the “GFP status of treated cells after removal of vorinostat” value ([1]; 2 weeks vorinostat, then 2 weeks culture without vorinostat, FIG. 2A) is listed as “remained mostly GFP^−”. The “percentage of latent (GFP-) cells” value ([1]; 3 weeks post infection, in the presence of vorinostat, DMSO 70%) was 10%, the “reduction of latent (GFP-) population vs vehicle (DMSO)” value ([1]; 3 weeks post infection, from 70% (DMSO) to 10%) was 7 fold and the “impact on HIV latency, vorinostat in media 0-14 days post infection” value ([1]; add in / wash out, latently infected cells measured at 3 wpi, FIG. 2B) was “significant impact”. The “impact on frequency of latently infected cells, addition or removal between 14 dpi and 21 dpi” value ([1]; add in / wash out, measured at 3 wpi, FIG. 2B) was “little impact”, the “emergence of latently infected cells, continuous exposure” value ([1]; continuous vorinostat 500 nM, 3 weeks post infection, FIG. 1C) was “potently prevented the emergence of latently infected cells” and the “effect on the formation” value [1] was “potently inhibited the emergence of a latent (GFP^−) population”. The “establishment of latency, pulsatile exposure” value ([1]; daily 6 h pulse of vorinostat 500 nM followed by 18 h wash-out, 3 weeks, FIG. 1C) was “significantly block the establishment of latency in a subset of cells”, the “suppression of HIV latency over a range of concentrations” value ([1]; exposure for two weeks to different vorinostat concentrations, FIG. 2A) was “clear dose-dependent fashion” and the “fraction of cells with central memory phenotype (CD45RA- CCR7+)” value ([4]; 2-3 weeks post infection) was “increased fraction”. The “expression of CD4 T cell activation marker PD-1” value [4] was “did not lead to increased expression”.
With CC(C)N(C[C@H]1O[C@@H](n2cnc3c(N)ncnc32)[C@H](O)[C@@H]1O)[C@H]1C[C@@H](CCc2nc3cc(C(C)(C)C)ccc3[nH]2)C1 [pinometostat] the “effect on the formation” value [1] was “no significant effect”.
